Broadly, the solubility is how much of the substance goes into solution per volume. Higher therefore signals a readily soluble substance.

These results are taken from patent US20150064794A1, “BIORELEVANT COMPOSITIONS” (PHARES PHARMACEUTICAL RESEARCH N.V., priority 2012, published 2015).

For series [1] the following is noted: medium FaSSIF-Original; Söderlind; cited from earlier work.
The next series can be described thus: physchem. The conditions noted are these: fassif.
Series [2] is described as follows: Solubility in canine FaSSIF (FaSSIF-canine).

In brackets after ≈: the same amount, converted by molar mass.

With `OCCN(CCO)c1nc(N2CCCCC2)c2nc(N(CCO)CCO)nc(N3CCCCC3)c2n1` [dipyridamole], in series [1], the “solubility in prior art FaSSIF-Original” value was 19 µg/mL (≈ 37.7 µM). The amount in solution in “physchem” (solubility) came to 75 µg/mL (≈ 149 µM).

Consider `CC(=O)N1CCN(c2ccc(OCC3COC(Cn4ccnc4)(c4ccc(Cl)cc4Cl)O3)cc2)CC1` (stereo not shown) [ketoconazole], for which the solubility in series [2] came to 84.2 µg/mL (≈ 158 µM). Besides, in series [1], the “solubility in prior art FaSSIF-Original” value was 26 µg/mL (≈ 48.9 µM).
